# Where “and” joins values, the source holds several entries; their conditions need not be identical. Equal entries are not always repeated.
# Tested on: skin blemishes caused by cellulite and localised adiposity
# Assay: Plicometry: skin plica thickness measured with a plicometer, dermatological test of the cosmetic gel
# Format: in vivo, female volunteers
# Settings: same tests repeated with the single reactant; site and time point of each value not given
# Experimental: A dermatological test was carried out on 25 female volunteers between 18 and 65 years of age, with the backing of the Department of Physiological and Pharmacological Sciences of the university of Pavia. The investigation aimed to check the modification of three anatomical-physiological parameters, qualifying the unaesthetic-functional aspect connected to the manifestation of so-called cellulite and subcutaneous hypertriglyceridaemia: measurement of the skin folds, measurement of the circumference of the thighs, thermographic skin measurement.
# The test stretched out over 60 days with the continual daily application of the aforementioned preparation of cosmetic gel. The measurements were carried out after 15, 30 and 60 days. The detail of the test protocol and of the results obtained is shown hereafter.
# 25 female volunteers aged between 18 and 65, with the presence of skin blemishes caused by cellulite and localised adiposity, were selected according to the following criteria: good general state of health, absence of skin pathologies, not being under medication, commitment not to vary the normal daily routine, no medical history of atopy.
# The samples were tested by uniformly applying them on “Glute SX Glute DJ (Femoris Posto SX Femoris Posto DX Femoris Ant. SX Femoris Ant. DX” every day at least once per day for the entire duration of the test.
# At the time of inclusion in the study and during the subsequent checks after 15 days (T15), after 30 days (T30) and after 60 days (T60) of treatment the following instrumental measurements were taken: • plicometry (through a plicometer) • thigh circumference (through a measuring tape broken into millimetres) • contact thermography (through liquid crystal thermographic plates).
# In particular, the plicometer used in the test constitutes the suitable instrument for measuring the skin plica thickness. Skin plicometry provides numerical data of particular use when the panniculopathic process of the cellulite is associated with localised adiposity.
smiles,measurement,value
"C[N+](C)(C)CC(O)CC(=O)O (stereo not shown) [Carnitine (II), 3-carboxy-2-hydroxy-propyl trimethyl amine, reference compound]","PLICOMETRY SX, average values",25.7 and 23.7
